Values of other authors as cited in patent EP3320903B1 (HK inno.N Corporation, priority 2015, dated 2017).

pKa: ~4.6
Structure (SMILES): CC(C)c1nc(N(C)S(C)(=O)=O)nc(-c2ccc(F)cc2)c1/C=C/[C@@H](O)C[C@@H](O)CC(=O)O [rosuvastatin, (3R,5S,6E)-7-[4-(4-fluorophenyl)-2-(N-methylmethanesulfonamido)-6-(propan-2-yl)pyrimidin-5-yl]-3,5-dihydroxyhepten-6-oic acid]
